# Data taken from ChEMBL document CHEMBL5108059, “Discovery of 2-Methyl-2-(4-(2-methyl-8-(1H-pyrrolo[2,3-b]pyridin-6-yl)-1H-naphtho[1,2-d]imidazol-1-yl)phenyl)propanenitrile as a Novel PI3K/mTOR Inhibitor with Enhanced Antitumor Efficacy In Vitro and In Vivo” (J Med Chem, 2022).
# pIC50: −log10 of the molar value.
# Columns and labels:
# [1] = target: Serine/threonine-protein kinase mTOR (Homo sapiens, UniProt P42345); assay: Inhibition of N-terminal FLAG-tagged recombinant human mTOR (1362 to end residue) using ULight-4EBP1 peptide as substrate incubated for 30 mins in presence of ATP by Lance ultra assay
# [2] = target: Phosphatidylinositol 4,5-bisphosphate 3-kinase catalytic subunit alpha isoform (Homo sapiens, UniProt P42336); assay: Inhibition of PI3Kalpha (unknown origin) using PIP2 as substrate incubated for 1 hr in presence of ATP by Kinase Glo luminescence assay
# Phosphatidylinositol 4,5-bisphosphate 3-kinase catalytic subunit alpha isoform, sequence (P42336 whole entry, canonical isoform): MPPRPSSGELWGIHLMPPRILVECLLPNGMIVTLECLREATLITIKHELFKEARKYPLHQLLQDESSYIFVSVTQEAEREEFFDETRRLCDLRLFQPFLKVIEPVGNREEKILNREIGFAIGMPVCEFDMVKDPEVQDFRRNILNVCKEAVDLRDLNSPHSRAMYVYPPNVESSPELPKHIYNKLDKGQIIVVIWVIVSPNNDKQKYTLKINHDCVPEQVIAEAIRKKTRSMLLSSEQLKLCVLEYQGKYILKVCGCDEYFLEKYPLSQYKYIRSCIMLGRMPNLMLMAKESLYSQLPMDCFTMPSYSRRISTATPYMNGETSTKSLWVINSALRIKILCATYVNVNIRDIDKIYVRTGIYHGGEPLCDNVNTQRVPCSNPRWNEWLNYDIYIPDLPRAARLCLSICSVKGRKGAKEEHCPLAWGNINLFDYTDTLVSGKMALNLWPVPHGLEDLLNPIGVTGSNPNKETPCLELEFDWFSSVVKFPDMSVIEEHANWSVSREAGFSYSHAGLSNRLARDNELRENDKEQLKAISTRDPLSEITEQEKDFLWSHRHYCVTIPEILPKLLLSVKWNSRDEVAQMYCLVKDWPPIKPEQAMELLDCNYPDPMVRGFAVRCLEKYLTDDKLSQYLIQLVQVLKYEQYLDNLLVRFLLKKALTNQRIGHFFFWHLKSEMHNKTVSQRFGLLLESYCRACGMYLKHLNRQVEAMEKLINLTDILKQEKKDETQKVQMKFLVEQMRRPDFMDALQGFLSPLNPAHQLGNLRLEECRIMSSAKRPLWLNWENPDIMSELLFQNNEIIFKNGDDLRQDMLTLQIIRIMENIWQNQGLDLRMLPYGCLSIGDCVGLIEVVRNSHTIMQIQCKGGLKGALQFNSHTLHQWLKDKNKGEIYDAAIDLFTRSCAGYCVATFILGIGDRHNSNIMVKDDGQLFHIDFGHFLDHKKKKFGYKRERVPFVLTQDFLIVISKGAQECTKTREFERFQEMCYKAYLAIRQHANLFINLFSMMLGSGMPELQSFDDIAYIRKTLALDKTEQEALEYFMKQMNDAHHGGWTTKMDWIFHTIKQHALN
# [3] = target: T1, Phosphatidylinositol 4,5-bisphosphate 3-kinase catalytic subunit delta isoform (Homo sapiens, UniProt O00329); assay: Inhibition of PI3Kdelta (unknown origin) using PIP2 as substrate incubated for 2 hrs in presence of ATP by Kinase Glo luminescence assay
# T1 sequence (O00329 whole entry): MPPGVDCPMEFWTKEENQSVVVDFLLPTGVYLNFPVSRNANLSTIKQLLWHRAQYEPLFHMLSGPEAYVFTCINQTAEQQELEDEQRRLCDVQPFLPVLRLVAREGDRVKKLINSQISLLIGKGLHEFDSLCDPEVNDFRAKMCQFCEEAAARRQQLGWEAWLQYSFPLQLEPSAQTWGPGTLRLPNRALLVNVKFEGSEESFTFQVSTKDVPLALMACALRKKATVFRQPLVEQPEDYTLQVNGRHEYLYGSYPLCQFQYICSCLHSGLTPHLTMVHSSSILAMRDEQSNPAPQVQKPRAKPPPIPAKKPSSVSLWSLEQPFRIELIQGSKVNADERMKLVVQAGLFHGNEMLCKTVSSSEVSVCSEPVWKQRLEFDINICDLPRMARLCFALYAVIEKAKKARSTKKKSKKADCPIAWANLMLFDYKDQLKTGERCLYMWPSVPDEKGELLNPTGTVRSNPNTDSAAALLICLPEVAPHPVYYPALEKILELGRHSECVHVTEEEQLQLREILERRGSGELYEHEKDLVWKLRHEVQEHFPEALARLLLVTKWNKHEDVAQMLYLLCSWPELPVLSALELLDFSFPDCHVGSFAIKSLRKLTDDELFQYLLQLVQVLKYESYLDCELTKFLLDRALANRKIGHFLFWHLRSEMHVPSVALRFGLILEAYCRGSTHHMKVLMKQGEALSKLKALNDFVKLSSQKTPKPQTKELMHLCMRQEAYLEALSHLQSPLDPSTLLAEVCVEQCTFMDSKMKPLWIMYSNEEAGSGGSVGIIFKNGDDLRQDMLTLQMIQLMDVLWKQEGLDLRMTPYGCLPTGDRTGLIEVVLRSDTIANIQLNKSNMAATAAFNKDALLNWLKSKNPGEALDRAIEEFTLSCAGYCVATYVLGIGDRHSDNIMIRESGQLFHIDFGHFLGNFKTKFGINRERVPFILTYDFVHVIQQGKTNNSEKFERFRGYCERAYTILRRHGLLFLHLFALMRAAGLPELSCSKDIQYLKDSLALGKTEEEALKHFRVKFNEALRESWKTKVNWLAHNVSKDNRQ
# [4] = tested on: HT-29; assay: Antiproliferative activity against human HT-29 cells with PIK3CA mutation assessed as inhibition of cell growth incubated for 48 to 72 hrs by MTT assay; assay type: functional, cell-based
# [5] = tested on: HCT-15; assay: Antiproliferative activity against human HCT-15 cells with PIK3CA mutation assessed as inhibition of cell growth incubated for 48 to 72 hrs by MTT assay; assay type: functional, cell-based
# [6] = tested on: NCI-H3122; assay: Antiproliferative activity against human NCI-H3122 cells assessed as inhibition of cell growth incubated for 48 to 72 hrs by MTT assay; assay type: functional, cell-based
# [7] = tested on: HeLa; assay: Antiproliferative activity against human HeLa cells assessed as inhibition of cell growth incubated for 48 to 72 hrs by MTT assay; assay type: functional, cell-based
# [8] = tested on: SW-620; assay: Antiproliferative activity against human SW620 cells assessed as inhibition of cell growth incubated for 48 to 72 hrs by MTT assay; assay type: functional, cell-based
# [9] = tested on: NCI-H446; assay: Antiproliferative activity against PTEN-null human NCI-H446 cells assessed as inhibition of cell growth incubated for 48 to 72 hrs by MTT assay; assay type: functional, cell-based
SMILES,pIC50 [1],pIC50 [2],pIC50 [3],pIC50 [4],pIC50 [5],pIC50 [6],pIC50 [7],pIC50 [8],pIC50 [9]
CC(=O)c1ccc(-c2ccc3ncc4nc(C)n(-c5ccc(F)cc5)c4c3c2)cc1,6.31,6.52,< 6.00,,,,,,
Cc1nc2cnc3ccc(-c4cnc5[nH]ccc5c4)cc3c2n1[C@@H](C)c1ccccc1,7.11,7.27,6.98,5.79,5.82,5.67,5.79,5.98,5.47
Cc1nc2cnc3ccc(-c4cnc5[nH]ccc5c4)cc3c2n1C1CC1,< 6.00,6.30,6.09,,,,,,
Cc1nc2cnc3ccc(-c4cnc5[nH]ccc5c4)cc3c2n1-c1ccc(C(F)(F)F)nc1,6.80,6.98,7.03,5.82,5.55,5.63,5.43,5.74,5.49
Cc1nc2cnc3ccc(-c4ccc(N)cc4)cc3c2n1-c1ccc(F)cc1,6.92,7.17,7.04,5.70,5.63,5.06,5.50,5.67,5.16
Cc1nc2cnc3ccc(-c4cnc5[nH]ccc5c4)cc3c2n1-c1ccc(CC#N)cc1,7.07,6.86,6.98,5.94,5.75,5.27,5.56,5.49,5.32
Cc1nc2cnc3ccc(-c4cnc5[nH]ccc5c4)cc3c2n1-c1ccc(F)nc1,7.12,7.38,7.26,5.94,5.89,5.88,5.72,6.01,5.68
COc1ccc(-n2c(C)nc3cnc4ccc(-c5cnc6[nH]ccc6c5)cc4c32)cc1,7.17,7.58,7.76,6.09,6.12,5.88,6.02,5.73,5.82
Cc1nc2cnc3ccc(-c4ccc(F)cc4)cc3c2n1-c1ccc(F)cc1,6.11,6.31,< 6.00,,,,,,
Cc1nc2cnc3ccc(-c4cnc5[nH]ccc5c4)cc3c2n1-c1ccc(F)cc1,7.41,7.67,7.54,5.90,5.95,5.69,5.74,5.89,5.78
COc1ccc(-c2ccc3ncc4nc(C)n(-c5ccc(F)cc5)c4c3c2)cc1,< 6.00,6.49,< 6.00,,,,,,
Cc1nc2cnc3ccc(-c4cnc5[nH]ccc5c4)cc3c2n1[C@@H](C)c1ccc(F)cc1,7.06,6.85,6.69,5.77,5.98,5.71,5.45,5.79,5.52
Cc1nc2cnc3ccc(-c4ccc(C(F)(F)F)cc4)cc3c2n1-c1ccc(F)cc1,< 6.00,6.29,< 6.00,,,,,,
Cc1ccc(-c2ccc3ncc4nc(C)n(-c5ccc(F)cc5)c4c3c2)cc1,< 6.00,6.45,6.24,,,,,,
Cc1nc2cnc3ccc(-c4cnc5[nH]ccc5c4)cc3c2n1[C@H](C)c1ccc(F)cc1,7.04,6.82,6.74,5.86,5.93,5.69,5.40,5.76,5.40
Cc1nc2cnc3ccc(-c4cnc5[nH]ccc5c4)cc3c2n1CC1CCOC1 (centres undefined),6.41,6.44,6.35,,,,,,
Cc1nc2cnc3ccc(-c4ccc5ccccc5c4)cc3c2n1-c1ccc(F)cc1,6.72,6.83,6.70,5.50,5.01,5.05,4.77,4.86,4.92

SMILES,pIC50 [1],pIC50 [2],pIC50 [3],pIC50 [4],pIC50 [5],pIC50 [6],pIC50 [7],pIC50 [8],pIC50 [9]
Cc1nc2cnc3ccc(-c4ccc(Cl)cc4)cc3c2n1-c1ccc(F)cc1,< 6.00,6.24,< 6.00,,,,,,
Cc1nc2cnc3ccc(-c4ccc5[nH]ccc5c4)cc3c2n1-c1ccc(F)cc1,7.31,7.53,7.24,5.57,5.72,5.64,5.75,5.60,5.51
Oc1cccc(-c2nc(N3CCOCC3)c3oc4ncccc4c3n2)c1 [PI-103],,,,5.88,5.75,5.60,5.43,5.97,5.67
Cc1nc2cnc3ccc(-c4cnc5[nH]ccc5c4)cc3c2n1-c1ccc(C#N)cc1,6.91,7.20,7.02,5.88,5.85,5.11,5.25,5.40,5.01
Cc1nc2cnc3cc(F)c(-c4cnc5[nH]ccc5c4)cc3c2n1-c1ccc(C(C)(C)C#N)cc1,7.34,7.71,7.54,6.04,6.08,6.17,6.29,5.86,5.78
Cc1nc2cnc3ccc(-c4ccc(N)nc4)cc3c2n1-c1ccc(F)cc1,7.03,7.29,7.39,5.92,5.69,5.32,5.77,5.67,5.44
Cc1nc2cnc3ccc(-c4cnc5[nH]ccc5c4)cc3c2n1Cc1ccccc1,6.58,6.93,6.98,5.53,5.51,5.17,5.57,5.38,5.12
Cc1noc(C)c1-c1ccc2ncc3nc(C)n(-c4ccc(F)cc4)c3c2c1,< 6.00,< 6.00,6.07,,,,,,
Cc1nc2cnc3ccc(-c4ccc(C#N)cc4)cc3c2n1-c1ccc(F)cc1,< 6.00,6.45,6.29,,,,,,
Cc1nc2cnc3ccc(-c4cnc5ccccc5c4)cc3c2n1-c1ccc(F)cc1,7.49,7.48,7.39,5.49,5.51,5.29,5.37,5.55,5.15
Cc1nc2cnc3ccc(-c4cnc5[nH]ccc5c4)cc3c2n1-c1ccccc1,7.13,7.39,7.49,5.64,5.71,5.25,5.44,5.54,5.35
Cc1nc2cnc3ccc(-c4cnc5[nH]ccc5c4)cc3c2n1CC1CCOCC1,6.38,6.51,6.66,,,,,,
Cc1nc2cnc3ccc(-c4cnc5[nH]ccc5c4)cc3c2n1C,6.17,6.33,< 6.00,,,,,,
Cc1nc2cnc3ccc(-c4cnc(N5CCOCC5)nc4)cc3c2n1-c1ccc(F)cc1,6.22,6.33,< 6.00,,,,,,
Cc1nc2cnc3ccc(-c4cnn(C)c4)cc3c2n1-c1ccc(F)cc1,< 6.00,6.17,< 6.00,,,,,,
Cc1nc2cnc3ccc(-c4cc(C(F)(F)F)cc(C(F)(F)F)c4)cc3c2n1-c1ccc(F)cc1,< 6.00,< 6.00,< 6.00,,,,,,
